Experimental data reported in patent US7109296B2, “Human 5-HT3-C protein” (Ortho-McNeil Pharmaceutical, Inc., priority 1999, dated 2006).

Legend:
Assay type in all cases: cell-based
human 5-HT3-C = target: T1, human 5-HT3-C (Homo sapiens, UniProt Q8WXA8); assay: Two-electrode voltage clamp, Xenopus oocytes injected with 5-HT3-C cRNA alone; conditions: oocytes injected with 33.5 ng 5-HT3-C
T1 construct: Characterization of the Function of Protein Encoded by p5HT3CR in Xenopus oocvtes; expressed in transfected cells; host or cells: Xenopus laevis oocytes injected with in vitro transcribed cRNA (pGEM HE)
T1 sequence (Q8WXA8 28-447): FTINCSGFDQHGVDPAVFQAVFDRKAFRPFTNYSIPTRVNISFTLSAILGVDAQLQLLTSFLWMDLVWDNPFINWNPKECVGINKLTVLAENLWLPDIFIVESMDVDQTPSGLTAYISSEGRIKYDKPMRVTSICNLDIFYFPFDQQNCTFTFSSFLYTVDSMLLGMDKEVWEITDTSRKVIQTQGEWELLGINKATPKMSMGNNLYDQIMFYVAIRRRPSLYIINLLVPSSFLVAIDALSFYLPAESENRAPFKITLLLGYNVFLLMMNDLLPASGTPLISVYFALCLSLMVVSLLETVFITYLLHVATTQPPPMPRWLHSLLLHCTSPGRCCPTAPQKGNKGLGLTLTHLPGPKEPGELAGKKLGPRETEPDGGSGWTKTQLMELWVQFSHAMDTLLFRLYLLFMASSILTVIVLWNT
Experimental: (§1) Characterization of the Function of Protein Encoded by p5HT3CR in Xenopus oocvtes Xenopus laevis oocytes were prepared and injected using standard methods previously described and known in the art (Fraser et al., 1993). Ovarian lobes from adult female Xenopus laevis (Nasco, Fort Atkinson, Wis.) were teased apart, rinsed several times in nominally Ca-free saline containing (in mM): NaCl 82.5, KCl 2.5, MgCl2 1, HEPES 5, adjusted to pH 7.0 with NaOH(OR-2), and gently shaken in OR-2 containing 0.2% collagenase Type 1 (ICN Biomedicals, Aurora, Ohio) for 2–5 hours. When approximately 50% of the follicular layers were removed, Stage V and VI oocytes were selected and rinsed in media consisting of 75% OR-2 and 25% ND-96. The ND-96 contained (in mM): NaCl 100, KCl 2, MgCl2 1, CaCl2 1.8, HEPES 5, Na pyruvate 2.5, gentamicin (50 ug/ml), adjusted to pH 7.0 with NaOH. […] For in vitro transcription, pGEM HE (Liman et al., 1992) containing human 5-HT3-A (Genbank D49394) or 5-HT3-C cDNA was linearized with NheI and transcribed with T7 RNA polymerase (Stratagene) in the presence of the cap analog m7G(5′)ppp(5′)G. The synthesized cRNA was purified with a Sephadex G-50 spin column. […] Control oocytes were injected with 50 nl of water. Oocytes were incubated for 2–14 days in ND-96 before analysis for expression of the human 5-HT3-C. Incubations and collagenase digestion were carried out at room temperature. Injected oocytes were maintained in 48 well cell culture clusters (Costar, Cambridge, Mass.) at 18° C. Whole cell agonist-induced currents were measured 1–14 days after injection with a conventional two-electrode voltage clamp (GeneClamp500, Axon Instruments, Foster City, Calif.) using standard methods previously described and known in the art (Dascal, 1987). The microelectrodes were filled with 3 M KCl, which had resistances of 1 and 2 MΩ. Cells were continuously perfused with ND96 at 10 ml/min at room temperature unless indicated. Membrane voltage was clamped at −70 mV unless indicated.

[1] = target: T2, long form of human 5-HT3-A together with 5-HT3-C (Homo sapiens, UniProt P46098+Q8WXA8); assay: Two-electrode voltage clamp, oocytes co-injected with long form of human 5-HT3-A and 5-HT3-C; conditions: 100 μM; n=2
T2 construct: Characterization of the Function of Protein Encoded by p5HT3CR in Xenopus oocvtes; expressed in transfected cells; host or cells: Xenopus laevis oocytes co-injected with cRNAs
T2 sequence (P46098 24-510 isoform P46098-2): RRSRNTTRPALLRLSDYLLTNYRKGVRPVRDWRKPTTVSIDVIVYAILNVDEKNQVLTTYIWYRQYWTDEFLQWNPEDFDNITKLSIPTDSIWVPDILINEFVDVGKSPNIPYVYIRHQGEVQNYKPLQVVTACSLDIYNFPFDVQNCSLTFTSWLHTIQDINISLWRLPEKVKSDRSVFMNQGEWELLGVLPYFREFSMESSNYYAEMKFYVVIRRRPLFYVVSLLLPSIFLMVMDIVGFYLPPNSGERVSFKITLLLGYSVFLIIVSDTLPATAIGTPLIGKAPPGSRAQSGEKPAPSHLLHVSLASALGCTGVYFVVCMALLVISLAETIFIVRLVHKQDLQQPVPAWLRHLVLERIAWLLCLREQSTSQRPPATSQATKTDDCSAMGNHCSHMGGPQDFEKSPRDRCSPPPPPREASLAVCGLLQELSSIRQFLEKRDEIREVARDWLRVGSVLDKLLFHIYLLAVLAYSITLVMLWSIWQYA
T2 sequence (Q8WXA8 28-447): T1 sequence (Q8WXA8 28-447)
Experimental: Characterization of the Function of Protein Encoded by p5HT3CR in Xenopus oocvtes Xenopus laevis oocytes were prepared and injected using standard methods previously described and known in the art (Fraser et al., 1993). Ovarian lobes from adult female Xenopus laevis (Nasco, Fort Atkinson, Wis.) were teased apart, rinsed several times in nominally Ca-free saline containing (in mM): NaCl 82.5, KCl 2.5, MgCl2 1, HEPES 5, adjusted to pH 7.0 with NaOH(OR-2), and gently shaken in OR-2 containing 0.2% collagenase Type 1 (ICN Biomedicals, Aurora, Ohio) for 2–5 hours. When approximately 50% of the follicular layers were removed, Stage V and VI oocytes were selected and rinsed in media consisting of 75% OR-2 and 25% ND-96. The ND-96 contained (in mM): NaCl 100, KCl 2, MgCl2 1, CaCl2 1.8, HEPES 5, Na pyruvate 2.5, gentamicin (50 ug/ml), adjusted to pH 7.0 with NaOH. […] Whole cell agonist-induced currents were measured 1–14 days after injection with a conventional two-electrode voltage clamp (GeneClamp500, Axon Instruments, Foster City, Calif.) using standard methods previously described and known in the art (Dascal, 1987). […]

5-HT3-B and 5-HT3-C = target: T3, 5-HT3-B and 5-HT3-C (Homo sapiens, UniProt O95264+Q8WXA8); assay: Two-electrode voltage clamp, oocytes co-injected with 5-HT3-B and 5-HT3-C; conditions: 10 μM; 5-HT3-B 3.3 ng, 5-HT3-C 3.35 ng/oocyte
T3 construct: Characterization of the Function of Protein Encoded by p5HT3CR in Xenopus oocvtes; expressed in transfected cells; host or cells: Xenopus laevis oocytes co-injected with cRNAs
T3 sequence (O95264 22-441): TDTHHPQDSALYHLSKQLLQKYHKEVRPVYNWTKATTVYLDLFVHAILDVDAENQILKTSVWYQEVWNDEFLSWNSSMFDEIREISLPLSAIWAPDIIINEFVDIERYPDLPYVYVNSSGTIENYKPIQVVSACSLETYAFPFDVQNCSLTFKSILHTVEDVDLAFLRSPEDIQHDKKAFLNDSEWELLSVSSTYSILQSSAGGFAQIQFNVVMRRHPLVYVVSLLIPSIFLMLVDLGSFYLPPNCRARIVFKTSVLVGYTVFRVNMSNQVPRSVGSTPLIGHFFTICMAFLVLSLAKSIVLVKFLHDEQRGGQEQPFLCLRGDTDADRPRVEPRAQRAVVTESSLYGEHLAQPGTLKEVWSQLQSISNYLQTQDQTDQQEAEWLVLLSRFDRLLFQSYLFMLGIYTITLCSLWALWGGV
T3 sequence (Q8WXA8 28-447): T1 sequence (Q8WXA8 28-447)
Experimental: as §1

[2] = target: T4, α3β4 receptors together with 5-HT3-C (Homo sapiens, UniProt P30926+P32297); assay: Two-electrode voltage clamp, oocytes expressing nicotinic ACh α3β4 receptors together with 5-HT3-C
T4 construct: expressed in transfected cells; host or cells: Xenopus laevis oocytes co-injected with cRNAs
T4 sequence (P32297 32-505): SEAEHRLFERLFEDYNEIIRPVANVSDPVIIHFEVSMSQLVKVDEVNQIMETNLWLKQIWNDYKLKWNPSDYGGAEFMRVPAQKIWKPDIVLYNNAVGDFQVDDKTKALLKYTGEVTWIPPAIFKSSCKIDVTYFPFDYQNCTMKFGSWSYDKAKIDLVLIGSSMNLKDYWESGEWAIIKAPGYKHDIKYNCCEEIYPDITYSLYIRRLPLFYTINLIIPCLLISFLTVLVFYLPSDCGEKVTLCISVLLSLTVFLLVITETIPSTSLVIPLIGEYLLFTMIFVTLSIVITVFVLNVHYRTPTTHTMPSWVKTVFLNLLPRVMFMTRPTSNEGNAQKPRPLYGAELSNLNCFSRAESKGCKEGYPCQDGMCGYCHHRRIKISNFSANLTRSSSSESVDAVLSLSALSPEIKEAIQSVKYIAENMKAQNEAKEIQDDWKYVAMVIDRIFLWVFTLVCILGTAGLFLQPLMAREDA
T4 sequence (P30926 22-498): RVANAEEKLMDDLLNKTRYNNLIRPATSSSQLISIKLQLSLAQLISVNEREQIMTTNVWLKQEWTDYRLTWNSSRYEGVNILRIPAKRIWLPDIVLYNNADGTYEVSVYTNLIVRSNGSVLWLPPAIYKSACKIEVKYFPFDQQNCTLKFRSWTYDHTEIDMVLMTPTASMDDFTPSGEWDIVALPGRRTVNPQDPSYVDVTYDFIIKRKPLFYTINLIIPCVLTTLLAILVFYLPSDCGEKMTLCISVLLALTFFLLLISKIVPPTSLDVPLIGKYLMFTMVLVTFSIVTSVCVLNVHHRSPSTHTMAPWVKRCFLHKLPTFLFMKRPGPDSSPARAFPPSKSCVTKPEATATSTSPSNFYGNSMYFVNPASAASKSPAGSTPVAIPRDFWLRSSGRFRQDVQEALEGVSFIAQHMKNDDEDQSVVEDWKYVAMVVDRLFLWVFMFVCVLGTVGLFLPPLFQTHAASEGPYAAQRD

[3] = target: T5, 5-HT3-C together with nicotinic ACh receptor a6 subunit (Homo sapiens, UniProt Q15825+Q8WXA8); assay: Two-electrode voltage clamp, oocytes injected with 5-HT3-C together with nicotinic ACh receptor α6 subunit; conditions: 10 μM; eight days after injection; 5-HT3-C 0.67 ng, a6 1 ng/oocyte
T5 construct: Characterization of the Function of Protein Encoded by p5HT3CR in Xenopus oocvtes; expressed in transfected cells; host or cells: Xenopus laevis oocytes injected with cRNA
T5 sequence (Q15825 26-494, one chain of several): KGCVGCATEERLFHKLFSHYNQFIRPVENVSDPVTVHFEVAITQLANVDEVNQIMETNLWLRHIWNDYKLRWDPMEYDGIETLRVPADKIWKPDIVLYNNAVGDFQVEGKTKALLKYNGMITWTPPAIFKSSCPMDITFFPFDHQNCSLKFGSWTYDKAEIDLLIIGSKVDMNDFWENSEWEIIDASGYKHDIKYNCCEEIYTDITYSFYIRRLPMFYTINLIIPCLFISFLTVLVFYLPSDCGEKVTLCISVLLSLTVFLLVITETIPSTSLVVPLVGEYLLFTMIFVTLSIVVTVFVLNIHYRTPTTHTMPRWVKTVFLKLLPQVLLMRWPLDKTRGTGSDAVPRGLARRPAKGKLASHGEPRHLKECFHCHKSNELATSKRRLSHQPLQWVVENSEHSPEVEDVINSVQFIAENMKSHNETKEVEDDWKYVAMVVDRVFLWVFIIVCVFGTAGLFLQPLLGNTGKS
Experimental: Characterization of the Function of Protein Encoded by p5HT3CR in Xenopus oocvtes Xenopus laevis oocytes were prepared and injected using standard methods previously described and known in the art (Fraser et al., 1993). Ovarian lobes from adult female Xenopus laevis (Nasco, Fort Atkinson, Wis.) were teased apart, rinsed several times in nominally Ca-free saline containing (in mM): NaCl 82.5, KCl 2.5, MgCl2 1, HEPES 5, adjusted to pH 7.0 with NaOH(OR-2), and gently shaken in OR-2 containing 0.2% collagenase Type 1 (ICN Biomedicals, Aurora, Ohio) for 2–5 hours. When approximately 50% of the follicular layers were removed, Stage V and VI oocytes were selected and rinsed in media consisting of 75% OR-2 and 25% ND-96. The ND-96 contained (in mM): NaCl 100, KCl 2, MgCl2 1, CaCl2 1.8, HEPES 5, Na pyruvate 2.5, gentamicin (50 ug/ml), adjusted to pH 7.0 with NaOH. […] For in vitro transcription, pGEM HE (Liman et al., 1992) containing human 5-HT3-A (Genbank D49394) or 5-HT3-C cDNA was linearized with NheI and transcribed with T7 RNA polymerase (Stratagene) in the presence of the cap analog m7G(5′)ppp(5′)G. The synthesized cRNA was purified with a Sephadex G-50 spin column. Oocytes were injected with 50 nl of the human serotonin 5-HT3-A receptor with or without the 5-HT3-C RNA (0.02 and 0.002–0.2 ng each) or other channel or receptor subunit. Control oocytes were injected with 50 nl of water. Oocytes were incubated for 2–14 days in ND-96 before analysis for expression of the human 5-HT3-C. Incubations and collagenase digestion were carried out at room temperature. Injected oocytes were maintained in 48 well cell culture clusters (Costar, Cambridge, Mass.) at 18° C. Whole cell agonist-induced currents were measured 1–14 days after injection with a conventional two-electrode voltage clamp (GeneClamp500, Axon Instruments, Foster City, Calif.) using standard methods previously described and known in the art (Dascal, 1987). The microelectrodes were filled with 3 M KCl, which had resistances of 1 and 2 MΩ. […]

[4] = target: T6, nicotinic ACh α3β4 receptors (Homo sapiens, UniProt P30926+P32297); assay: Two-electrode voltage clamp, oocytes expressing nicotinic ACh α3β4 receptors
T6 construct: expressed in transfected cells; host or cells: Xenopus laevis oocytes injected with cRNA
T6 sequence (P32297 32-505): as the sequence (P32297 32-505) above
T6 sequence (P30926 22-498): as the sequence (P30926 22-498) above

Row | SMILES | effect of agonist (agonist-induced current) (human 5-HT3-C; 100 μM) | effect of agonist (agonist-induced current) (human 5-HT3-C; 500 μM) | sensitivity of oocytes to agonist [1] | responsiveness of oocytes to agonist (5-HT3-B and 5-HT3-C) | Peak currents [2] | effect of 5-HT3-C co-injection on epibatidine-activated currents [2] | effect of 5-HT3-C on t80, time to peak and degree of desensitization to a second epibatidine stimulus [2] | responsiveness of oocytes to agonist [3] | Peak currents [4]
1 | NC(N)=NC(N)=Nc1ccccc1 [1-PBG] | no effect | no effect | insensitive | – | – | – | – | – | –
2 | Clc1ccc(C2CC3CCC2N3)cn1 (stereo not drawn) [epibatidine] | – | – | – | unresponsive | 6.49+/−0.69 nA | no effect | no effect | not responsive | −6.93+/−1.45 nA
